Data: patent US9801850B2, “Antibacterial agent” (OSAKA UNIVERSITY, priority 2009, dated 2017)
≈ marks a conversion by molar mass, not a printed value.

Key:
[1] = tested on: MSSA ATCC12600; experiment: MIC, broth microdilution (Example 2, Table 6); assay type: cell-based, Staphylococcus aureus
[2] = tested on: methicillin-resistant Staphylococcus aureus (MRSA) ATCC43300; experiment: MIC, broth microdilution (Example 1); assay type: cell-based; details: for MIC: MRSA ATCC43300, MH-broth, 37° C., 18 hours
Experimental: Methicillin-susceptible Staphylococcus aureus (MSSA) NCTC8325 and methicillin-resistant Staphylococcus aureus (MRSA) ATCC43300 were used as bacteria. The bacteria of each type were cultured using Mueller-Hinton Broth (MH-broth, Difco) as a medium. Then, the minimum inhibitory concentration (MIC) of each of the EGCG derivatives was measured by a broth microdilution method in accordance with the Clinical and Laboratory Standards Institute (CLSI) guidelines (hereinafter the same).
First, each of the EGCG derivatives was dissolved in 100% dimethyl sulfoxide (DMSO, Wako Pure Chemical Industries, Ltd.) so that the concentration thereof became 5120 μg/ml. The resultant solution was diluted with DMSO or sterile distilled water so as to prepare two-fold dilution series of antibacterial agent solutions. […] Each of these antibacterial agent solutions was dispensed to wells of a 96-well plate. The concentration of the EGCG derivative in the antibacterial agent solution dispensed to the wells was set to be 10 times as high as the final concentration. On the other hand, the bacteria were cultured in the MH-broth at 37° C. overnight, and the thus-obtained pre-culture solution was diluted with a new MH-broth so that the concentration thereof in the MH-broth became 10^−4 (10^4-fold dilution), thus preparing a bacterial culture solution of about 1×10^5 CFU/ml (CFU: Colony Forming Unit, the number of viable cells). The bacterial culture solution was further added to each well, and the mixture was cultured at 37° C. for 18 hours. The ratio (volume ratio) between the antibacterial agent solution and the bacterial culture solution added to each well was set to 1:9 (the antibacterial agent solution:the bacterial culture solution), and the volume of the mixture of them per well was set to 100 μl in total. The final concentration of the EGCG derivative in the mixture was set to 8 μg/ml to 512 μg/ml, and the number of viable cells in the mixture was set to about 1×10^5 CFU/ml. Then, after the completion of the culture, the MIC was determined. Also, the turbidity (OD600 nm) was measured using a plate reader so as to identify minor differences.
As Comparative Example 1, the same procedures as in Example 1 were performed, except that unsubstituted EGCG was used as an antibacterial agent instead of the EGCG derivatives of Example 1. Furthermore, as a control, the same procedures as in Example 1 were performed, except that sterile distilled water, 100% DMSO, or 50% DMSO was used instead of the antibacterial agent solutions containing the EGCG derivatives.

[3] = tested on: MRSA clinical isolate No. 8; experiment: MIC, broth microdilution (Example 2, Table 6); assay type: cell-based, Staphylococcus aureus
[4] = tested on: Enterobacter aerogenes ATCC13048; experiment: Antibacterial spectrum MIC (Table 7); assay type: cell-based
Outline: (§1)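 CLSI broth microdilution in Mueller-Hinton broth: compounds were dissolved in DMSO, diluted with sterile water and tested at final 8–512 μg/ml against about 1×10^5 CFU/ml inoculum. After 18 h at 37 °C, the MIC was read and OD600 turbidity was recorded.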

[5] = tested on: Staphylococcus epidermis ATCC14990; experiment: Antibacterial spectrum MIC (Table 7); assay type: cell-based; details: for MIC: Staphylococcus epidermis ATCC14990
Outline: as §1

[6] = tested on: Serratia marcescens ATCC13880; experiment: Antibacterial spectrum MIC (Table 7); assay type: cell-based
Outline: as §1

[7] = tested on: Yersinia enterocolitica ATCC9610; experiment: Antibacterial spectrum MIC (Table 7); assay type: cell-based
Outline: as §1

[8] = tested on: Streptococcus pneumoniae ATCC49619; experiment: Antibacterial spectrum MIC (Table 7); assay type: cell-based; details: Strepto Haemo supplement
Outline: as §1

[9] = tested on: Staphylococcus aureus ATCC43300 (MRSA); experiment: Antibacterial spectrum MIC (Table 7); assay type: cell-based
Outline: as §1

[10] = tested on: Staphylococcus aureus NCTC8325; experiment: Antibacterial spectrum MIC (Table 7); assay type: cell-based
Outline: as §1

[11] = tested on: Neisseria meningitidis; experiment: Antibacterial spectrum MIC (Table 7); assay type: cell-based
Outline: as §1

[12] = tested on: Bacillus subtilus ATCC6051; experiment: Antibacterial spectrum MIC (Table 7); assay type: cell-based
Outline: as §1

[13] = tested on: Haemophilis influenzae ATCC49766; experiment: Antibacterial spectrum MIC (Table 7); assay type: cell-based; details: Strepto Haemo supplement
Outline: as §1

[14] = tested on: Bacillus cereus ATCC14579; experiment: Antibacterial spectrum MIC (Table 7); assay type: cell-based
Outline: as §1

[15] = tested on: Klebsiella oxytoca ATCC8724; experiment: Antibacterial spectrum MIC (Table 7); assay type: cell-based
Outline: as §1

[16] = tested on: Escherichia coli ATCC25922; experiment: Antibacterial spectrum MIC (Table 7); assay type: cell-based
Outline: as §1

[17] = tested on: Neisseria gonorrhoeae ATCC49226; experiment: Antibacterial spectrum MIC (Table 7); assay type: cell-based
Outline: as §1

[18] = tested on: Stenotrophomonas maltophilia ATCC13637; experiment: Antibacterial spectrum MIC (Table 7); assay type: cell-based
Outline: as §1

[19] = tested on: Streptococcus pyogenes ATCC19615; experiment: Antibacterial spectrum MIC (Table 7); assay type: cell-based; details: Strepto Haemo supplement
Outline: as §1

[20] = tested on: Moraxella catarrhalis; experiment: Antibacterial spectrum MIC (Table 7); assay type: cell-based; details: Moraxella catarrhalis clinical isolate, Strepto Haemo supplement
Outline: as §1

[21] = tested on: Enterobacter cloacae ATCC13047; experiment: Antibacterial spectrum MIC (Table 7); assay type: cell-based
Outline: as §1

[22] = tested on: Streptococcus agalactiae ATCC13813; experiment: Antibacterial spectrum MIC (Table 7); assay type: cell-based; details: Strepto Haemo supplement
Outline: as §1

[23] = tested on: Enterococcus faecalis ATCC29212; experiment: Antibacterial spectrum MIC (Table 7); assay type: cell-based
Outline: as §1

[24] = tested on: MSSA clinical isolate No. 2; experiment: MIC, broth microdilution (Example 2, Table 6); assay type: cell-based, Staphylococcus aureus

Molecule	MIC [1]	MIC [3]	MIC [4]	MIC [5]	MIC [6]	MIC [7]	MIC [8]	MIC [9]	MIC [10]	MIC [11]	MIC [12]	MIC [13]	MIC [14]	MIC [15]	MIC [16]	MIC [17]	MIC [18]	MIC [19]	MIC [20]	MIC [21]	other results
O=C(O[C@@H]1Cc2c(O)cc(O)cc2O[C@@H]1c1cc(O)c(O)c(O)c1)c1cc(O)c(O)c(O)c1 [EGCG, Epigallocatechin gallate, reference compound]	>128 µg/mL	128 µg/mL (≈ 279 µM)	64 µg/mL (≈ 140 µM)	128 µg/mL (≈ 279 µM)	128 µg/mL (≈ 279 µM)	64 µg/mL (≈ 140 µM)	32 µg/mL (≈ 69.8 µM)	128 µg/mL (≈ 279 µM)	128 µg/mL (≈ 279 µM)	32 µg/mL (≈ 69.8 µM)	64 µg/mL (≈ 140 µM)	32 µg/mL (≈ 69.8 µM)	64 µg/mL (≈ 140 µM)	128 µg/mL (≈ 279 µM)	128 µg/mL (≈ 279 µM)	32 µg/mL (≈ 69.8 µM)	64 µg/mL (≈ 140 µM)	128 µg/mL (≈ 279 µM)	128 µg/mL (≈ 279 µM)	128 µg/mL (≈ 279 µM)	MIC [2]: 256 µg/mL (≈ 558 µM); MIC [22]: 256 µg/mL (≈ 558 µM); MIC [23]: 256 µg/mL (≈ 558 µM); MIC [24]: >128 µg/mL
EGCG-palmitate [EGCG-C16]	16 µg/mL	8 µg/mL	32 µg/mL	32 µg/mL	64 µg/mL	32 µg/mL	16 µg/mL	32 µg/mL	16 µg/mL	16 µg/mL	16 µg/mL	16 µg/mL	16 µg/mL	64 µg/mL	64 µg/mL	16 µg/mL	32 µg/mL	64 µg/mL	64 µg/mL	64 µg/mL	MIC [2]: 8 µg/mL; inhibition of propagation (MIC, turbidity OD600 nm) ([2]; MRSA, FIG. 1 and Table 3): remarkable propagation-inhibiting effect; antibacterial effect ([5]; Staphylococcus epidermids ATCC14990, comparison among EGCG derivatives): strongest antibacterial effect; MIC [22]: >64 µg/mL; MIC [23]: 16 µg/mL; MIC [24]: 16 µg/mL
EGCG-α-linoleate [EGCG-C18TE]	16 µg/mL	8 µg/mL	32 µg/mL	64 µg/mL	64 µg/mL	32 µg/mL	16 µg/mL	64 µg/mL	16 µg/mL	16 µg/mL	32 µg/mL	16 µg/mL	32 µg/mL	64 µg/mL	64 µg/mL	16 µg/mL	32 µg/mL	64 µg/mL	32 µg/mL	64 µg/mL	MIC [22]: >64 µg/mL; MIC [23]: 64 µg/mL; MIC [24]: 16 µg/mL
